Series [1] has as its system NRF2/ARE signaling pathway. Put plainly: NRF2/ARE‐luciferase reporter assay in HEK293T cells. Type of series: cell-based, human. Conditions: 10 µM, 48 h, relative to DMSO. As to the method:
The NRF2‐responsive firefly luciferase reporter plasmid (pGL4.27_ARE NRF2‐SPE) and Renilla luciferase control plasmid (pRL‐TK) were co‐transfected into HEK293T cells using Lipofectamine 2000. After 24 h, transfected cells were seeded into 96‐well plates and incubated overnight. Test compounds (10 μM) were added, and cells were incubated for an additional 48 h. Luciferase activities were measured using the Dual‐Lumi Luciferase Reporter Assay Kit (Beyotime Biotechnology), following the manufacturer's instructions.
FIGURE 6 KT‐939 activates the ARE/NRF2 signaling pathway. HEK293T cells transfected with an NRF2‐responsive firefly luciferase reporter were treated with 10 µM of KT‐939, hydroquinone (Hq), 377, or 4‐butylresorcinol for 48 h. Luminescence signals were normalized to renilla and expressed relative to DMSO control. *** p < 0.001 vs DMSO.
On the technique in general: In a reporter assay the amount or activity of a reporter protein is the signal.

Another series deals with T1, human tyrosinase (hTYR) (Homo sapiens, UniProt P14679).
T1 construct: tyrosinase enzyme solution derived from MNT‐1 cells; endogenous in cells; host or cells: MNT-1 human melanoma cell line (crude lysate supernatant)
T1 sequence (P14679 19-529): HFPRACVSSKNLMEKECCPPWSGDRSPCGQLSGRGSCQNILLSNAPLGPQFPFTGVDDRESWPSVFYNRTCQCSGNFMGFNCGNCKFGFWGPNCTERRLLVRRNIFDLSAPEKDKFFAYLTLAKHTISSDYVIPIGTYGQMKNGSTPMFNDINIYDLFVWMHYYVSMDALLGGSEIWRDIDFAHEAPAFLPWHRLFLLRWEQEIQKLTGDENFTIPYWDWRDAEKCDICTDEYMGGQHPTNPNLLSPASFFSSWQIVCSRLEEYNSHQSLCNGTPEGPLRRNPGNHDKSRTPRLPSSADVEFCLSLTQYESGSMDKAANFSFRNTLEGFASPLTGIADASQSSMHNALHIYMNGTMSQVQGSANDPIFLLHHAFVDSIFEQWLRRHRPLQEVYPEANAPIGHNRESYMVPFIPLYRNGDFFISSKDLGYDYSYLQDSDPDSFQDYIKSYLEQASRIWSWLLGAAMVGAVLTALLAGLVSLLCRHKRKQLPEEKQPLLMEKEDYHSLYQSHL
Nature of the series: L‐DOPA oxidation assay for tyrosinase activity (MNT‐1 cell lysate). Conditions: for IC50: MNT‐1 lysate, L‐DOPA 4 mM, pH 6.9, read-out: IC50 against hTYR; for inhibitory effect on hTYR at maximum tested concentration: up to 33.3 μM; for inhibition at 0.4 µM: read-out: inhibitory activity against hTYR compared to the control. Type of series: biochemical. As to the method:
The hTYR‐mediated L‐DOPA oxidation assay was performed according to Winder and Harris. MNT‐1 cells were resuspended in 0.05 M sodium phosphate buffer (pH 6.9) and sonicated for 1 min. After incubation on ice for 3–5 min, the mixture underwent a second sonication. The lysate was centrifuged at 13 000 rpm for 15 min at 4°C, and the supernatant was collected and kept on ice.
For the assay, 20 μL of crude enzyme solution and 80 μL sodium phosphate buffer were added to a 96‐well plate and centrifuged at 1000 rpm for 30 s. Subsequently, 2 μL of different concentrations of test compounds were added to each well, followed by centrifugation at 1000 rpm for 30 s. Finally, 100 μL L‐DOPA (final concentration 4 mM) was added to initiate the reaction. The microplate reader (Synergy H1 Hybrid Reader, BioTek) was used to monitor the reaction at 26°C, measuring absorbance at 475 nm every minute for 60 min. IC50 values were calculated using GraphPad software based on Vmax values from the kinetic curves.
The L‐DOPA tyrosinase assay was performed using a tyrosinase enzyme solution derived from MNT‐1 cells in 50 mM sodium phosphate buffer (pH 6.9), with a substrate (L‐DOPA) concentration of 4 mM and various concentrations of inhibitors as indicated. Data represent mean ± standard deviation of three independent experiments.

The subject of the next series is melasma. Details: method as in PMID 34676600. Conditions: moderate‐to‐severe melasma, 24 weeks of application, cited from earlier work.
The next series relates to MNT‐1 cells. Nature of the series: Melanin content in MNT‐1 cells after 6 days of treatment. Conditions: for inhibition of melanin production: 0.37 μM; for inhibition of melanin production / inhibition at 1.1 µM / inhibition at 3.3 µM / inhibition at 10 µM: 6 days; for IC50 / inhibition at 1.1 µM / inhibition at 3.3 µM / inhibition at 10 µM: Homo sapiens; for IC50: 144 h, MNT‐1, 6 days, read-out: IC50 of melanin production; for inhibition at 1.1 µM / inhibition at 3.3 µM / inhibition at 10 µM: MNT-1, 144 h, read-out: inhibition of melanin production. Type of series: cell-based, human. How it is done: MNT‐1 cells were exposed to varying concentrations of test compounds for 6 days. After treatment, cells were harvested and lysed in RIPA buffer on ice for 20 min. Lysates were centrifuged at 13 000 rpm for 10 min at 4°C, and the supernatant was collected. Protein concentration was quantified using a BCA Protein Assay Kit (Thermo Fisher). To extract melanin, cell pellets were dissolved in 1 M NaOH and incubated for 3 h at 80°C. Absorbance at 405 nm was measured using a Synergy H1 Hybrid Reader. Melanin content was quantified by referencing a standard curve of synthetic melanin (maximum concentration 50 μg/mL, 2‐fold gradient dilution, 8 concentration points). Melanin content was normalized to protein concentration (μg melanin/mg protein), and IC50 values were calculated using GraphPad software.
FIGURE 3 Inhibition of melanin production in MNT‐1 by KT‐939, Thiamidol, and 4‐butylresorcinol. MNT‐1 cells were treated with different concentrations of KT‐939, Thiamidol, or 4‐butylresorcinol for 6 days. The melanin content was quantified based on the standard curve of melanin, and the melanin content per mg of protein was utilized for IC50 calculations with GraphPad software.

For a further series, the system named is MelanoDerm skin model. The arrangement: method as in PMID 29427586. The note with it: cited from earlier work.
In the next series the target is hTYR enzyme. Details: method as in PMID 29427586. Conditions: purified hTYR; read-out: IC50 against the hTYR enzyme; cited from earlier work.

The structures appear in SMILES notation.

For orientation: IC50 means the midpoint of a concentration-inhibition curve.

Turning to `CC(c1ccccc1)c1ccc(O)cc1O` (centres unmarked) [compound 377, phenethyl resorcinol], in series [1], the “NRF2 signaling pathway activation (luciferase reporter)” value (shortened to “NRF2 signaling pathway activation”) was “no effect on NRF2 activation”. Besides, the half-inhibitory concentration (IC50) at human tyrosinase (hTYR) turned out to be 21.3 µM. The “inhibitory activity against hTYR compared to the control” value at human tyrosinase (hTYR) (at 0.4 μM) turned out to be 2.7%.
Consider `NC(=O)c1cccnc1` [nicotinamide], for which the “inhibitory effect on hTYR at maximum tested concentration” value (shortened to “inhibitory effect on hTYR”) on human tyrosinase (hTYR) is on record as “no significant inhibitory effects”.
Turning to `Oc1ccc(/C=C/c2cc(O)cc(O)c2)cc1` [resveratrol], the IC50 on human tyrosinase (hTYR) is 6.04 µM. At human tyrosinase (hTYR) (at 0.4 μM), the inhibition at 0.4 µM worked out at 13.4%.
Turning to `CC1(C)C=Cc2c(ccc3c2OC[C@@H](c2ccc(O)cc2O)C3)O1` [glabridin], at human tyrosinase (hTYR), the “inhibitory effect on hTYR” value is “no significant inhibitory effects”.
Still for that read-out and setting: under `OC[C@H]1O[C@@H](Oc2ccc(O)cc2)[C@H](O)[C@@H](O)[C@@H]1O` [arbutin] stands “no significant inhibitory effects”.
With `CC(C)C(=O)Nc1nc(-c2ccc(O)cc2O)cs1` [Thiamidol, isobutylamido thiazolyl resorcinol], in the series with melasma, the tolerability entry is “favorable tolerability”. In addition, in the series on melasma (Fitzpatrick phototypes III–V), the “melasma severity compared to baseline and vehicle” value is “significantly reduced melasma severity”. Moreover, in the series with MNT‐1 cells, the “inhibition of melanin production” value was “neither Thiamidol nor 4‐butylresorcinol showed inhibitory activity”, the concentration for half-maximal inhibition (IC50) came out at 1.3 µM, the inhibition at 1.1 µM is 27.2% and the inhibition at 3.3 µM is 62.2%. The inhibition at 10 µM with MNT‐1 cells was found to be 76.5%. Besides, the concentration for half-maximal inhibition (IC50) in the series with MelanoDerm skin model is 0.9 µM. Further, the IC50 on human tyrosinase (hTYR) was 0.33 µM. Besides, the inhibition at 0.4 µM on human tyrosinase (hTYR) (at 0.4 μM) was determined as 53.5%. Also, on hTYR enzyme, the IC50 was 1.1 µM.
In the case of `Oc1ccc(O)cc1` [hydroquinone], the “NRF2 signaling pathway activation” value in series [1] was “no effect on NRF2 activation”. The “inhibitory effect on hTYR” value at human tyrosinase (hTYR) is “no significant inhibitory effects”.
For `CCCCc1ccc(O)cc1O` [4‐butylresorcinol], in the series on MNT‐1 cells, the “inhibition of melanin production” value is “neither Thiamidol nor 4‐butylresorcinol showed inhibitory activity”, the IC50 stood at 8 µM, the inhibition at 1.1 µM is 15.8% and the inhibition at 3.3 µM was found to be 32.6%. The inhibition at 10 µM in the series on MNT‐1 cells is 48.4%. Besides, the “NRF2 signaling pathway activation” value in series [1] is “no effect on NRF2 activation”. For the same compound, the half-maximal inhibitory concentration (IC50) on human tyrosinase (hTYR) turned out to be 7.09 µM. The inhibition at 0.4 µM on human tyrosinase (hTYR) (at 0.4 μM) is 9.7%.

These data come from article PMC12569736 (Journal of Cosmetic Dermatology, 2025).
